# Measured values taken from ChEMBL document CHEMBL4402605, “A Chemical Switch for Transforming a Purine Agonist for Toll-like Receptor 7 to a Clinically Relevant Antagonist” (J Med Chem, 2020).
# Active and inactive are the calls of the source. No cut-off for these calls is given here.
# How the values were obtained:
# [1] = biological target: T1, Toll-like receptor 7 (Homo sapiens) (UniProt Q9NYK1); assay: Antagonist activity at human TLR7 expressed in HEK-Blue cells assessed as inhibition of CL264-induced IL-6 mRNA expression at 5 uM preincubated for 1 hr followed by CL264 stimulation and measured after 6 hrs by SYBR green dye based RT-PCR analysis relative to control; format: cell-based
# T1 sequence (whole entry): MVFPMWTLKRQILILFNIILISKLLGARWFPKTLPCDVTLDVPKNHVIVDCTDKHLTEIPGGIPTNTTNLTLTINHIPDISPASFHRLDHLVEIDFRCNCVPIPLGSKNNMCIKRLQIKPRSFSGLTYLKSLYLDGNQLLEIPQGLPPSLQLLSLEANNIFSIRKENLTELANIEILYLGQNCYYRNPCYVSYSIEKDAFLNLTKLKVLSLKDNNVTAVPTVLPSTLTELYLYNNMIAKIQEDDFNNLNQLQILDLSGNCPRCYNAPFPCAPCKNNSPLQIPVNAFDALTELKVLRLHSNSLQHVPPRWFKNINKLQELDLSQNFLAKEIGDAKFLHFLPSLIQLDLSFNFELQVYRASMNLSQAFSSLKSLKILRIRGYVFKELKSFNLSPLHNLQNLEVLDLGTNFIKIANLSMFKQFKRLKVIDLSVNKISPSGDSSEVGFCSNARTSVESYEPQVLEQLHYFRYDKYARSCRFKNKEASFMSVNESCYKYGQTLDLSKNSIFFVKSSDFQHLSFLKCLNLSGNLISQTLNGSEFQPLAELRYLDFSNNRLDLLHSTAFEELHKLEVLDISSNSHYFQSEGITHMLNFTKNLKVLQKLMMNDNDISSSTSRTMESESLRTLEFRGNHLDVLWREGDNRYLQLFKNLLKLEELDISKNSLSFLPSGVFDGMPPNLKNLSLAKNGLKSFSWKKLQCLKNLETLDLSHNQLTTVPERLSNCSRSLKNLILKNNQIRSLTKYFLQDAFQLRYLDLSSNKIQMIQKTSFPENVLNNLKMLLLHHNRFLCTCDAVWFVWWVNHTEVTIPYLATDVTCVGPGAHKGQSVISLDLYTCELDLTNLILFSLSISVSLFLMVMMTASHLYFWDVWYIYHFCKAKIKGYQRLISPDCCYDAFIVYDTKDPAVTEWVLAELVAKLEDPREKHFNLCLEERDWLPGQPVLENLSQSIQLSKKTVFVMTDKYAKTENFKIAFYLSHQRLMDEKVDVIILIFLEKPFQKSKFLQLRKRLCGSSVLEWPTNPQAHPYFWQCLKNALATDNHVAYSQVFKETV
# [2] = biological target: T1, Toll-like receptor 7 (Homo sapiens); assay: Antagonist activity at TLR7 in human PBMC assessed as inhibition of gardiquimod-induced TNFalpha production at 5 uM preincubated for 1 hr followed by gardiquimod stimulation and measured after overnight incubation by ELISA
# [3] = Apparent permeability across apical to basal side in human Caco2 cells at 10 uM measured after 120 mins by LC-MS/MS analysis; details: Caco-2
# [4] = Half life in human liver microsomes at 100 uM by LC-MS/MS analysis
# Mus musculus [5] = assay: (§1) Protection against imiquimod-induced C57BL/6 mouse model of psoriasis assessed as decrease in skin thickening at 15 mg/kg, po administered via gavage treated 1 day prior to imiquimod application and subsequent daily dosing for 7 consecutive days and measured post-last dose; format: functional, organism-based
# Mus musculus [6] = assay: as §1, with “suppression of hyperkeratosis” for “decrease in skin thickening”, “dose by H and E staining based histopathological analysis” for “dose”; format: functional
# Mus musculus [7] = assay: as §1, with “suppression of parakeratosis” for “decrease in skin thickening”, “dose by H and E staining based histopathological analysis” for “dose”; format: functional
# Mus musculus [8] = assay: as §1, with “suppression of papillomatosis” for “decrease in skin thickening”, “dose by H and E staining based histopathological analysis” for “dose”; format: functional
# Mus musculus [9] = assay: as §1, with “suppression of vascular dilatation” for “decrease in skin thickening”, “dose by H and E staining based histopathological analysis” for “dose”; format: functional
# Mus musculus [10] = assay: as §1, with “suppression of microabscesses” for “decrease in skin thickening”, “dose by H and E staining based histopathological analysis” for “dose”; format: functional
# Mus musculus [11] = assay: as §1, with “reduction” for “decrease”, “MX2 mRNA expression” for “skin thickening”, “dose by SYBR green dye based qPCR analysis” for “dose”; format: functional, organism-based
# Mus musculus [12] = assay: as §1, with “reduction” for “decrease”, “ISG15 mRNA expression” for “skin thickening”, “dose by SYBR green dye based qPCR analysis” for “dose”; format: functional, organism-based
# Mus musculus [13] = assay: as §1, with “reduction” for “decrease”, “IFIT1 mRNA expression” for “skin thickening”, “dose by SYBR green dye based qPCR analysis” for “dose”; format: functional, organism-based
# [14] = Toxicity in C57BL/6 mouse assessed as liver inflammation at 15 mg/kg, po administered once daily via gavage for 7 consecutive days and measured post-last dose by H and E staining based histomorphological analysis; format: organism-based; details: in vivo
# [15] = Toxicity in C57BL/6 mouse assessed as change in lung microanatomy at 15 mg/kg, po administered once daily via gavage for 7 consecutive days and measured post-last dose by H and E staining based histomorphological analysis; format: organism-based; details: in vivo
# [16] = Toxicity in C57BL/6 mouse assessed as lung immune infiltration at 15 mg/kg, po administered once daily via gavage for 7 consecutive days and measured post-last dose by H and E staining based histomorphological analysis; format: organism-based; details: in vivo
# [17] = Toxicity in C57BL/6 mouse assessed as change in lung alveolar architecture at 15 mg/kg, po administered once daily via gavage for 7 consecutive days and measured post-last dose by H and E staining based histomorphological analysis; format: organism-based; details: in vivo
# [18] = Toxicity in C57BL/6 mouse assessed as glomerular hypertrophy at 15 mg/kg, po administered once daily via gavage for 7 consecutive days and measured post-last dose by H and E staining based histomorphological analysis; format: organism-based; details: in vivo
# [19] = Toxicity in C57BL/6 mouse assessed as mesangial proliferation at 15 mg/kg, po administered once daily via gavage for 7 consecutive days and measured post-last dose by H and E staining based histomorphological analysis; format: organism-based; details: in vivo
# [20] = Toxicity in C57BL/6 mouse assessed as capsular space obliteration at 15 mg/kg, po administered once daily via gavage for 7 consecutive days and measured post-last dose by H and E staining based histomorphological analysis; format: organism-based; details: in vivo
# [21] = Toxicity in C57BL/6 mouse assessed as inflammation of kidney at 15 mg/kg, po administered once daily via gavage for 7 consecutive days and measured post-last dose by H and E staining based histomorphological analysis; format: organism-based; details: in vivo
# Toll-like receptor 7 = biological target: T2, Toll-like receptor 7 (Homo sapiens, UniProt Q9NYK1)
# T2 sequence (Q9NYK1 whole entry): T1 sequence (whole entry)
# Description: Antagonist activity at human TLR7 expressed in HEK-Blue cells assessed as inhibition of CL264-induced NFkappaB activation by measuring reduction in SEAP level after overnight incubation using qunati-blue reagent by SEAP reporter gene-based spectrophotometric method
# physchem = details: phosphate buffer, pH 7.4
# Description: Aqueous solubility of the compound in pH 7.4 0.25 M phosphate buffer at 500 uM incubated for 18 hrs under stirred condition by UV-HPLC analysis
smiles,measurement,setting,value
CCN1CCN(CCCn2cnc3c(N4CCN(CC)CC4)ncnc32)CC1,inhibition,[1],42.9%
same,inhibition,[2],Active
same,"Papp A→B at 2 h, 10 µM",[3],3.57 ×10⁻⁶ cm/s
same,half-life at 100 µM,[4],1.5 h
same,Activity,Mus musculus [5],Active
same,Activity,Mus musculus [6],100%
same,Activity,Mus musculus [7],100%
same,Activity,Mus musculus [8],100%
same,Activity,Mus musculus [9],100%
same,Activity,Mus musculus [10],100%
same,Activity,Mus musculus [11],Active
same,Activity,Mus musculus [12],Active
same,Activity,Mus musculus [13],Active
same,Activity,[14],Non-Toxic
same,Activity,[15],Non-Toxic
same,Activity,[16],Non-Toxic
same,Activity,[17],Non-Toxic
same,Activity,[18],Non-Toxic
same,Activity,[19],Non-Toxic
same,Activity,[20],Non-Toxic
same,Activity,[21],Non-Toxic
same,IC50,Toll-like receptor 7,4.7 µM
same,"solubility at 18 h, 500 µM",physchem,200 µg/mL
